Reference: patent US12187723B2 (BRISTOL-MYERS SQUIBB COMPANY, priority 2019, dated 2025)

Columns and labels:
human TLR7 = biological target: T1, human TLR7 (Homo sapiens, UniProt Q9NYK1); test: TLR7 inhibition reporter assay (HEK-Blue SEAP); assay type: cell-based; settings: HEK-Blue cells overexpressing human TLR7, gardiquimod 7.5 μM, 22 hour incubation
T1 construct: host or cells: HEK-Blue cells
T1 sequence (Q9NYK1 27-1049): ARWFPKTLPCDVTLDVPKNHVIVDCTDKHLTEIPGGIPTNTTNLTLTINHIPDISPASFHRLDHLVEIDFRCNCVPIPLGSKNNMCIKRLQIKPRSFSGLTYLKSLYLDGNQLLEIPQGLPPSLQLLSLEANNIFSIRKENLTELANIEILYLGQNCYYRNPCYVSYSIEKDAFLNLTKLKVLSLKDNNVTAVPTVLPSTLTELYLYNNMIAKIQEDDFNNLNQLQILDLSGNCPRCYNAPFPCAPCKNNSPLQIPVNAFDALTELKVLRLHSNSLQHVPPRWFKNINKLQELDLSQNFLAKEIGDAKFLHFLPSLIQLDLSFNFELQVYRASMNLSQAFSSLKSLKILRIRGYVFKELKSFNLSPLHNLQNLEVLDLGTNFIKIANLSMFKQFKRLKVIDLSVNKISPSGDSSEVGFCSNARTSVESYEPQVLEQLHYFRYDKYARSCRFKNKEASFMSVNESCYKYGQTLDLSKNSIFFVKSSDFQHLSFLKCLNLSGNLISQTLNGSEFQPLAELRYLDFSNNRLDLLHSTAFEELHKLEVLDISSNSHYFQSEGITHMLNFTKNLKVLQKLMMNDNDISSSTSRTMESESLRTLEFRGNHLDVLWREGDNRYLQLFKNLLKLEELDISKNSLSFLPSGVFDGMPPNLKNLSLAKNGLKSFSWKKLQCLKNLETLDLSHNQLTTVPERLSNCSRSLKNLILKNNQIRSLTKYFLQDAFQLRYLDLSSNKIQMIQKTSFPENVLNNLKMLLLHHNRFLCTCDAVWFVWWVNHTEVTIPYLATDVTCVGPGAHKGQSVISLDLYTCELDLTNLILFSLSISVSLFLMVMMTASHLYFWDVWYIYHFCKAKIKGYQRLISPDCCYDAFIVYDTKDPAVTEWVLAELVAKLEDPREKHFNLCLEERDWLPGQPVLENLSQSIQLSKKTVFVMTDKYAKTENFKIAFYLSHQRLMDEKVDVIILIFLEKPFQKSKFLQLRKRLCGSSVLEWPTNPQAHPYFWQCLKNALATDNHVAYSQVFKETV
Protocol: (§1) TLR7/8/9 Inhibition Reporter Assays
Briefly, cells are seeded into Greiner 384 well plates (15000 cells per well for TLR7, 20,000 for TLR8 and 25,000 for TLR9) and then treated with test compounds in DMSO to yield a final dose response concentration range of 0.05 nM-50 μM. […] After a 22 hour incubation at 37° C., 5% CO2, SEAP levels are determined with the addition of HEK-Blue™ Detection reagent (Invivogen), a cell culture medium that allows for detection of SEAP, according to manufacturer's specifications. The percent inhibition is determined as the % reduction in the HEK-Blue signal present in wells treated with agonist plus DMSO alone compared to wells treated with a known inhibitor.

human TLR9 = biological target: T2, human TLR9 (Homo sapiens, UniProt Q9NR96); test: TLR9 inhibition reporter assay (HEK-Blue SEAP); assay type: cell-based; settings: HEK-Blue cells overexpressing human TLR9, ODN2006 5 nM, 22 hour incubation
T2 construct: host or cells: HEK-Blue cells
T2 sequence (Q9NR96 26-1032): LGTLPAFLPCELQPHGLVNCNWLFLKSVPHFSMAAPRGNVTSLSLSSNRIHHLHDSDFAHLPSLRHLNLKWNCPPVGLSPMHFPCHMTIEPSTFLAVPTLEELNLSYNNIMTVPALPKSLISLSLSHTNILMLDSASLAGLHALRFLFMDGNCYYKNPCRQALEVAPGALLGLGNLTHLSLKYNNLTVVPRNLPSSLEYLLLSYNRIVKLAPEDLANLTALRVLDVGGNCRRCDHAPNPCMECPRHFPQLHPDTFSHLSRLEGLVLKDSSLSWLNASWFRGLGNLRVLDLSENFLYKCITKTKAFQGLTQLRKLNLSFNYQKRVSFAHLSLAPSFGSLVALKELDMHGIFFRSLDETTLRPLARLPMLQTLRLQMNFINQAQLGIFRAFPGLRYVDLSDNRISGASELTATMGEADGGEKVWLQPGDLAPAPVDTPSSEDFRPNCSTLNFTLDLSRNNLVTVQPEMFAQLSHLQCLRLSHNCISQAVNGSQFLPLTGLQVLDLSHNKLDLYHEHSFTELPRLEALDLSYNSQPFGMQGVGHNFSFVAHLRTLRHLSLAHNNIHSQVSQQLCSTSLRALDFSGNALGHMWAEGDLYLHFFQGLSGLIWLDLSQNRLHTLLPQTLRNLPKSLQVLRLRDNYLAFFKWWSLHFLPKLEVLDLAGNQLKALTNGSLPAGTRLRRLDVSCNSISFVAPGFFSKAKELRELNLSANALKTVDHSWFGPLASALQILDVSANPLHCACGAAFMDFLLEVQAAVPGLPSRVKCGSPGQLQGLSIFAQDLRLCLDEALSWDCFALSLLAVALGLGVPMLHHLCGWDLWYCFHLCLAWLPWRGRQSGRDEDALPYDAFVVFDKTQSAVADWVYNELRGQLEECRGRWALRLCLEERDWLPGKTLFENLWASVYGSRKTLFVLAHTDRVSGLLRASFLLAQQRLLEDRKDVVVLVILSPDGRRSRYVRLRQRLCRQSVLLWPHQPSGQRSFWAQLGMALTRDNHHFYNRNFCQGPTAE
Protocol: as §1
HEK-Blue™-cells (Invivogen) overexpressing human TLR7, TLR8 or TLR9 receptors were used for screening inhibitors of these receptors using an inducible SEAP (secreted embryonic alkaline phosphatase) reporter gene under the control of the IFN-β minimal promoter fused to five NF-κB and AP-1-binding sites. Briefly, cells are seeded into Greiner 384 well plates (15000 cells per well for TLR7, 20,000 for TLR8 and 25,000 for TLR9) and then treated with test compounds in DMSO to yield a final dose response concentration range of 0.05 nM-50 μM. After a 30 minute compound pre-treatment at room temperature, the cells are then stimulated with a TLR7 ligand (gardiquimod at a final concentration of 7.5 μM), TLR8 ligand (R848 at a final concentration of 15.9 μM) or TLR9 ligand (ODN2006 at a final concentration of 5 nM) to activate NF-κB and AP-1 which induce the production of SEAP. After a 22 hour incubation at 37° C., 5% CO2, SEAP levels are determined with the addition of HEK-Blue™ Detection reagent (Invivogen), a cell culture medium that allows for detection of SEAP, according to manufacturer's specifications. The percent inhibition is determined as the % reduction in the HEK-Blue signal present in wells treated with agonist plus DMSO alone compared to wells treated with a known inhibitor.

## COc1cc(-c2cc3[nH]c(=O)n([C@H]4CCCN(CC5CC5)C4)c3cc2C(C)C)cn2ncnc12 (single isomer, unassigned) [Example 128]
Human TLR7
  IC50: 44 nM
Human TLR9
  IC50: > 50000 nM

## CCN1CCC[C@@H](n2c(=O)[nH]c3cc(-c4cc(OC)c5ncnn5c4)c(C(C)C)cc32)C1 (single isomer, unassigned) [Example 144]
Human TLR7
  IC50: 8.58 nM
Human TLR9
  IC50: 14100 nM

## Cc1cc2c(cc1-c1cc(C)c3ncnn3c1)[nH]c(=O)n2C1CCN(C)CC1 [Example 3, 6-methyl-5-(8-methyl-[1,2,4]triazolo[1,5-a]pyridin-6-yl)-1-(1-methylpiperidin-4-yl)-1,3-dihydro-2H-benzo[d]imidazol-2-one]
Human TLR7
  IC50: 30.5 nM
Human TLR9
  IC50: 4640 nM

## Cc1cc(-c2ccc3c(c2)[nH]c(=O)n3C2CCN(C)CC2)cn2ncnc12 [Example 4, 5-(8-methyl-[1,2,4]triazolo[1,5-a]pyridin-6-yl)-1-(1-methylpiperidin-4-yl)-1,3-dihydro-2H-benzo[d]imidazol-2-one]
Human TLR7
  IC50: 863 nM
Human TLR9
  IC50: 964 nM

## Cc1cc(-c2ccc3c(c2)[nH]c(=O)n3C2CCN(C(C)C)CC2)cn2ncnc12 [Example 5, 1-(1-isopropylpiperidin-4-yl)-5-(8-methyl-[1,2,4]triazolo[1,5-a]pyridin-6-yl)-1,3-dihydro-2H-benzo[d]imidazol-2-one]
Human TLR7
  IC50: 1550 nM
Human TLR9
  IC50: 2750 nM

## CCN1CCC(n2c(=O)[nH]c3cc(-c4cc(C)c5ncnn5c4)c(C)cc32)CC1 [Example 6, 1-(1-ethylpiperidin-4-yl)-6-methyl-5-(8-methyl-[1,2,4]triazolo[1,5-a]pyridin-6-yl)-1,3-dihydro-2H-benzo[d]imidazol-2-one]
Human TLR7
  IC50: 38.7 nM
Human TLR9
  IC50: 871 nM

## CCCN1CCC(n2c(=O)[nH]c3cc(-c4cc(C)c5ncnn5c4)c(C)cc32)CC1 [Example 7, 6-methyl-5-(8-methyl-[1,2,4]triazolo[1,5-a]pyridin-6-yl)-1-(1-propylpiperidin-4-yl)-1,3-dihydro-2H-benzo[d]imidazol-2-one]
Human TLR7
  IC50: 41.8 nM
Human TLR9
  IC50: 1330 nM

## CCN1CCC(n2c(=O)[nH]c3cc(-c4cc(OC)c5ncnn5c4)c(C)cc32)CC1 [Example 9, 1-(1-ethylpiperidin-4-yl)-5-(8-methoxy-[1,2,4]triazolo[1,5-a]pyridin-6-yl)-6-methyl-1,3-dihydro-2H-benzo[d]imidazol-2-one]
Human TLR7
  IC50: 70.8 nM
Human TLR9
  IC50: 638 nM

## COc1cc(-c2cc3[nH]c(=O)n(C4CCN(C(C)C)CC4)c3cc2C)cn2ncnc12 [Example 10, 1-(1-isopropylpiperidin-4-yl)-5-(8-methoxy-[1,2,4]triazolo[1,5-a]pyridin-6-yl)-6-methyl-1,3-dihydro-2H-benzo[d]imidazol-2-one]
Human TLR7
  IC50: 63.2 nM
Human TLR9
  IC50: 354 nM

## Cc1cc2c(cc1-c1cc(C)c3ncnn3c1)[nH]c(=O)n2[C@@H]1CCCN(CC(N)=O)C1 [Example 94, (R)-2-(3-(6-methyl-5-(8-methyl-[1,2,4]triazolo[1,5-a]pyridin-6-yl)-2-oxo-2,3-dihydro-1H-benzo[d]imidazol-1-yl)piperidin-1-yl)acetamide]
Human TLR7
  IC50: 704 nM
Human TLR9
  IC50: > 50000 nM

## Cc1cc2c(cc1-c1cc(C)c3ncnn3c1)[nH]c(=O)n2[C@@H]1CCCN(CC(=O)N(C)C)C1 [Example 95, (R)—N,N-dimethyl-2-(3-(6-methyl-5-(8-methyl-[1,2,4]triazolo[1,5-a]pyridin-6-yl)-2-oxo-2,3-dihydro-1H-benzo[d]imidazol-1-yl)piperidin-1-yl)acetamide]
Human TLR7
  IC50: 117 nM
Human TLR9
  IC50: 14600 nM

## Cc1cc2c(cc1-c1cc(C)c3ncnn3c1)[nH]c(=O)n2[C@@H]1CCCN(CC#N)C1 [Example 96, (R)-2-(3-(6-methyl-5-(8-methyl-[1,2,4]triazolo[1,5-a]pyridin-6-yl)-2-oxo-2,3-dihydro-1H-benzo[d]imidazol-1-yl)piperidin-1-yl)acetonitrile]
Human TLR7
  IC50: 66.1 nM
Human TLR9
  IC50: 8640 nM

## COCCN1CCC[C@@H](n2c(=O)[nH]c3cc(-c4cc(C)c5ncnn5c4)c(C)cc32)C1 [Example 97, (R)-1-(1-(2-methoxyethyl)piperidin-3-yl)-6-methyl-5-(8-methyl-[1,2,4]triazolo[1,5-a]pyridin-6-yl)-1,3-dihydro-2H-benzo[d]imidazol-2-one]
Human TLR7
  IC50: 38.8 nM
Human TLR9
  IC50: 19100 nM

## COCCN1CCC[C@@H](n2c(=O)[nH]c3cc(-c4cc(OC)c5ncnn5c4)c(C)cc32)C1 [Example 98, (R)-5-(8-methoxy-[1,2,4]triazolo[1,5-a]pyridin-6-yl)-1-(1-(2-methoxyethyl)piperidin-3-yl)-6-methyl-1,3-dihydro-2H-benzo[d]imidazol-2-one]
Human TLR7
  IC50: 20.5 nM
Human TLR9
  IC50: 5910 nM

## COc1cc(-c2cc3[nH]c(=O)n([C@@H]4CCCN(CC(=O)N(C)C)C4)c3cc2C)cn2ncnc12 [Example 99, (R)-2-(3-(5-(8-methoxy-[1,2,4]triazolo[1,5-a]pyridin-6-yl)-6-methyl-2-oxo-2,3-dihydro-1H-benzo[d]imidazol-1-yl)piperidin-1-yl)-N,N-dimethylacetamide]
Human TLR7
  IC50: 391 nM
Human TLR9
  IC50: > 50000 nM

## COc1cc(-c2cc3[nH]c(=O)n(C4CCN(C(=O)CN(C)C)CC4)c3cc2C)cn2ncnc12 [Example 100, 1-(1-(2-(dimethylamino)acetyl)piperidin-4-yl)-5-(8-methoxy-[1,2,4]triazolo[1,5-a]pyridin-6-yl)-6-methyl-1H-benzo[d]imidazol-2(3H)-one]
Human TLR7
  IC50: 548 nM
Human TLR9
  IC50: 1660 nM
